Source: patent publication US11465993B2, “Water soluble novel cyanine fluorophore with tunable properties between near IR and SWIR region for in vivo imaging” (The USA, as represented by the Secretary, Department of …, priority 2018, dated 2022)

Tests used:
[1] = Emission (fluorescence) spectra of cyanine fluorophores in different solvents
[2] = Absorbance spectra of cyanine fluorophores in different solvents (absorbance maximum, molar absorptivity)
[3] = Solubility and aggregation in PBS, serum or organic solvent; details: for aggregation: PBS and serum; for solubility: medium as stated in the value
[4] = pH 7.4 PBS, excitation wavelength per compound (figure legends)
[5] = pH 7.4 PBS, at wavelength of maximum absorbance

| Compound | emission maximum (λmax, emiss) ([1]; 0.1% formic acid in acetonitrile, excitation at 800 nm) [nm] | emission maximum (λmax, emiss) ([1]; acetonitrile) [nm] | absorbance maximum (λmax, abs) ([2]; 0.1% formic acid in acetonitrile) [nm] | absorbance maximum (λmax, abs) ([2]; acetonitrile) [nm] | aggregation [3] | emission maximum (λmax, emiss) ([1]; 10% (v/v) FBS in pH 7.4 PBS) [nm] | emission maximum (λmax, emiss) ([1]; methanol) [nm] | emission maximum (λmax, emiss) [1, 4] [nm] | absorbance maximum (λmax, abs) ([2]; 10% (v/v) FBS in pH 7.4 PBS) [nm] | molar absorptivity (ε) ([2]; 10% (v/v) FBS in pH 7.4 PBS) | absorbance maximum (λmax, abs) ([2]; methanol) [nm] | molar absorptivity (ε) ([2]; methanol) | absorbance maximum (λmax, abs) ([2]; pH 7.4 PBS) [nm] | molar absorptivity (ε) [2, 5] | solubility [3] | emission maximum (λmax, emiss) ([1]; dichloromethane) [nm] | absorbance maximum (λmax, abs) ([2]; dichloromethane) [nm] | molar absorptivity (ε) ([2]; dichloromethane) |
| --- | --- | --- | --- | --- | --- | --- | --- | --- | --- | --- | --- | --- | --- | --- | --- | --- | --- | --- |
| CCCC/N=C/C1=C2C3=C(/C(=C/C=C4/N(C)c5ccccc5C4(C)C)CCC3CC1)c1ccccc12 (centres unmarked) [Compound 26] | 906 | 720 | 872 | 540 |  |  |  |  |  |  |  |  |  |  |  |  |  |  |
| CC1(C)C(/C=C/C2=C3Oc4ccc(C(=O)N(CCCS(=O)(=O)O)CCC(=O)O)cc4OC4=C3C(CC2)CC/C4=C\C=C2\N(CCCCS(=O)(=O)O)c3ccc(S(=O)(=O)[O-])cc3C2(C)C)=[N+](CCCCS(=O)(=O)O)c2ccc(S(=O)(=O)O)cc21.N.N.N.N (centres unmarked) [Compound 10] |  |  |  |  | eliminated aggregation in both PBS and serum | 900 | 896 | 896 | 871 | 137,000 M^−1cm^−1 | 869 | 187,000 M^−1cm^−1 | 862 | 145,000 M^−1cm^−1 |  |  |  |  |
| CN1/C(=C/C=C2\CCC3CCC(/C=C/C4=[N+](C)c5ccccc5C4(C)C)=C4C3=C2c2ccccc24)C(C)(C)c2ccccc21 (centres unmarked) [Compound 25] |  |  |  |  |  |  | 1110 |  |  |  | 1066 |  |  |  |  |  |  |  |
| CC1(C)C(/C=C/C2=C3Oc4ccccc4OC4=C3C(CC2)CC/C4=C\C=C2\N(CCCCS(=O)(=O)[O-])c3ccccc3C2(C)C)=[N+](CCCCS(=O)(=O)[O-])c2ccccc21.[Na+] (centres unmarked) [BisSO3-NIR-890] |  |  |  |  |  | 900 | 890 | 890 | 877 | 187,000 M^−1cm^−1 | 860 | 275,000 M^−1cm^−1 | 689 |  |  |  |  |  |
| CC1(C)C(/C=C/C2=C3C4=C(/C(=C/C=C5/N(CCCCS(=O)(=O)O)c6ccc(S(=O)(=O)[O-])cc6C5(C)C)CCC4CC2)c2cc(C(=O)O)ccc23)=[N+](CCCCS(=O)(=O)O)c2ccc(S(=O)(=O)O)cc21.N.N.N (centres unmarked) [Compound 8] |  |  |  |  |  | 1086 | 1103 | 1084 | 1062 | 99,000 M^−1cm^−1 | 1072 | 117,000 M^−1cm^−1 | 1058 | 70,000 M^−1cm^−1 | water-soluble |  |  |  |
| CN1/C(=C/C=C2\CCC3CCC(C=O)=C4C3=C2c2ccccc24)C(C)(C)c2ccccc21 (centres unmarked) [Compound 23] |  | 780 |  | 600 |  |  |  |  |  |  |  |  |  |  |  |  |  |  |
| CC1(C)C(/C=C/C2=C3Oc4ccc(CCC(=O)O)cc4OC4=C3C(CC2)CC/C4=C\C=C2\N(CCCCS(=O)(=O)[O-])c3ccc(S(=O)(=O)[O-])cc3C2(C)C)=[N+](CCCCS(=O)(=O)[O-])c2ccc(S(=O)(=O)[O-])cc21.[Na+].[Na+].[Na+] (centres unmarked) [NIR-900-Et] |  |  |  |  |  | 900 | 890 | 900 | 864 | 148,000 M^−1cm^−1 | 860 | 253,000 M^−1cm^−1 | 856 | 172,000 M^−1cm^−1 |  |  |  |  |
| CC1(C)C(/C=C/C2=C3Oc4ccc(C(=O)O)cc4OC4=C3C(CC2)CC/C4=C\C=C2\N(CCCCS(=O)(=O)[O-])c3ccc(S(=O)(=O)[O-])cc3C2(C)C)=[N+](CCCCS(=O)(=O)[O-])c2ccc(S(=O)(=O)[O-])cc21.[Na+].[Na+].[Na+] (centres unmarked) [Compound 6] |  |  |  |  | only moderate aggregation | 896 | 896 | 896 | 868 | 192,000 M^−1cm^−1 | 866 | 208,000 M^−1cm^−1 | 860 | 191,000 M^−1cm^−1 |  |  |  |  |
| CC1(C)C(/C=C/C2=C3Sc4ccccc4SC4=C3C(CC2)CC/C4=C\C=C2\N(CCCCS(=O)(=O)[O-])c3ccc(S(=O)(=O)[O-])cc3C2(C)C)=[N+](CCCCS(=O)(=O)[O-])c2ccc(S(=O)(=O)[O-])cc21.[Na+].[Na+].[Na+] (centres unmarked) [NIR-950] |  |  |  |  |  | 955 | 960 | 950 | 902 | 128,000 M^−1cm^−1 | 890 | 193,000 M^−1cm^−1 | 880 | 79,000 M^−1cm^−1 |  |  |  |  |
| CN1/C(=C/C=C2\CCC3CCC(/C=C/C4=[N+](C)c5ccccc5C4(C)C)=C(Cl)C3=C2Cl)C(C)(C)c2ccccc21 (centres unmarked) [N-methyl-NIR-990] |  |  |  |  |  |  | 960 |  |  |  | 922 | 46,886 M^−1cm^−1 |  |  | organic soluble | 990 | 940 | 134,658 M^−1cm^−1 |
